Results from ChEMBL document CHEMBL2331223, “Synthesis of 2-aminomethyl-4-phenyl-1-azabicyclo[2.2.1]heptanes via LiAlH₄-induced reductive cyclization of 2-(4-chloro-2-cyano-2-phenylbutyl)aziridines and evaluation of their antimalarial activity” (Bioorg Med Chem Lett, 2013).

How the values were obtained:
Plasmodium falciparum [1] = experiment: Antimalarial activity against chloroquine-sensitive Plasmodium falciparum D10; type: functional, organism-based
CHO = experiment: Cytotoxicity against CHO cells by MTT assay; type: cell-based; conditions: Cricetulus griseus
Plasmodium falciparum [2] = experiment: Resistant index, ratio of IC50 for chloroquine-resistant Plasmodium falciparum Dd2 to IC50 for chloroquine-sensitive Plasmodium falciparum D10; type: functional
Plasmodium falciparum [3] = experiment: Antimalarial activity against chloroquine-resistant Plasmodium falciparum Dd2; type: functional, organism-based
[4] = Selectivity index, ratio of IC50 for CHO cells to IC50 for chloroquine-sensitive Plasmodium falciparum D10; type: toxicity, cell-based; conditions: hamster, read-out: Ratio IC50

c1ccc(CNC[C@H]2C[C@@]3(c4ccccc4)CCN2C3)cc1 (relative stereo)
IC50 (Plasmodium falciparum [1]): 18.4 µM | IC50 (CHO): > 300 µM | Ratio IC50 (Plasmodium falciparum [2]): 4.4 | IC50 (Plasmodium falciparum [3]): 78.5 µM

Cc1ccc(CNC[C@H]2C[C@@]3(c4ccccc4)CCN2C3)cc1 (relative stereo)
IC50 (Plasmodium falciparum [1]): 10.3 µM | IC50 (CHO): 163 µM | selectivity ratio [4]: 15.7 | Ratio IC50 (Plasmodium falciparum [2]): 1.5 | IC50 (Plasmodium falciparum [3]): 15.9 µM

Clc1ccc(CNC[C@H]2C[C@@]3(c4ccccc4)CCN2C3)cc1 (relative stereo)
IC50 (Plasmodium falciparum [1]): 6.01 µM | IC50 (CHO): 90.4 µM | selectivity ratio [4]: 15.1 | Ratio IC50 (Plasmodium falciparum [2]): 2 | IC50 (Plasmodium falciparum [3]): 11.8 µM

c1ccc(CNC[C@@H]2C[C@@]3(c4ccccc4)CCN2C3)cc1 (relative stereo)
IC50 (Plasmodium falciparum [1]): 2.63 µM | IC50 (CHO): 231 µM | selectivity ratio [4]: 91.2 | Ratio IC50 (Plasmodium falciparum [2]): 9.6 | IC50 (Plasmodium falciparum [3]): 24.2 µM

Cc1ccc(CNC[C@@H]2C[C@@]3(c4ccccc4)CCN2C3)cc1 (relative stereo)
IC50 (Plasmodium falciparum [1]): 0.81 µM | IC50 (CHO): 160 µM | selectivity ratio [4]: 200 | Ratio IC50 (Plasmodium falciparum [2]): 12.5 | IC50 (Plasmodium falciparum [3]): 10 µM

Clc1ccc(CNC[C@@H]2C[C@@]3(c4ccccc4)CCN2C3)cc1 (relative stereo)
IC50 (Plasmodium falciparum [1]): 1.39 µM | IC50 (CHO): 71.2 µM | selectivity ratio [4]: 51.1 | Ratio IC50 (Plasmodium falciparum [2]): 1.7 | IC50 (Plasmodium falciparum [3]): 2.4 µM

CC[C@H]1CN2CCc3cc(OC)c(OC)cc3[C@@H]2C[C@@H]1C[C@H]1NCCc2cc(OC)c(OC)cc21 [EMETINE]
IC50 (CHO): 0.33 µM
